From PubChem BioAssay AID602296 (Broad Institute, 2012)
Results filed as inconclusive are left out. Active and inactive are the calls of the source.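 Rule for the calls: active = fitted activation curve crossing 40% at a concentration no higher than the sample's top valid tested dose; inconclusive = flat fitted curve at 30% to 70% activation, or poor curve fit; inactive = signal decrease, flat curve within 30%, or the rest.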

tested on: NIH3T3-HGL HSF-1 response element luciferase, 48 h; experiment: HSF-1 reporter activators over prolonged exposure, confirmation, cell-based, mouse, luciferase, cherry-pick, dose (AID 602296);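 note: test compounds applied by themselves with no MG132 co-treatment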

Q: With `Cc1cc(C)c2cc(C(=O)N(C)C3CCN(C)CC3)[nH]c2c1` as the molecule, how does the AC40 read?
A: > 26 µM (inactive)

Q: For `O=C(NC1C(=O)NNC1c1ccccc1)c1ccccc1` (configuration not stated), which AC40 is on record?
A: 6.88 µM

Q: Which AC40 does the source give for `O=c1[nH]c(N2CCN(c3ccccc3)CC2)nc2c1CCC2` here?
A: > 26 µM (inactive)

Q: `Cc1nc(SCCOc2ccc(F)cc2)c2ccccc2n1` was tested. Which AC40 did it give?
A: 3.44 µM

Q: Which AC40 does the source give for `COC(=O)C(C)N(C(=O)c1ccc(C(=O)c2ccccc2)cc1)c1c(C)cccc1C` (configuration not stated) here?
A: 19.3 µM

Q: How did the AC40 turn out when `C=CC[n+]1c(-c2ccc(OC)cc2)csc1NNC(=O)Nc1ccccc1` was run?
A: > 12 µM (inactive)

Q: `Cc1ccc(N2C(=O)CCC2(C#N)c2ccccc2)cc1` (configuration not stated) was tested. Which AC40 did it give?
A: > 26 µM (inactive)

Q: `CN(/C(=N\S(=O)(=O)c1ccccc1)c1ccccc1)c1ccc(O)cc1` was tested. Which AC40 did it give?
A: > 26 µM (inactive)

Q: Which AC40 does the source give for `O=C1C=C(c2ccccc2)CC(/C=C/c2ccccc2)C1` (configuration not stated) here?
A: 18 µM

Q: `COc1ccc(-c2nc(C#N)c(N3CCCCC3)o2)cc1` was tested. Which AC40 did it give?
A: > 26 µM (inactive)

Q: With `O=C(NCc1ccco1)C1CC(O)CN1C(=O)Nc1ccccc1` (configuration not stated) as the molecule, how does the AC40 read?
A: > 26 µM (inactive)

Q: How did the AC40 turn out when `O=C(O)CC1=C(Nc2ccccc2)C(=O)N(c2ccccc2)C1c1ccc(Cl)cc1` (configuration not stated) was run?
A: 5.67 µM

Q: For `CC(C)OC(=O)c1ccc(COc2ccc3ccc(=O)oc3c2)o1`, which AC40 is on record?
A: 3.16 µM

Q: For `COc1ccc(C(=O)Cn2c(C(=O)/C=C/c3ccccc3)nc3ccccc32)cc1`, which AC40 is on record?
A: 2.39 µM

Q: Which AC40 does the source give for `COc1ccc(S(=O)(=O)N2CCC(C(=O)NCc3cccnc3)CC2)cc1C` here?
A: > 26 µM (inactive)

Q: With `CCc1nc2c(sc3nc4c(cc32)COC(C)(C)C4)c(=O)n1Cc1ccco1` as the molecule, how does the AC40 read?
A: > 26 µM (inactive)

Q: How did the AC40 turn out when `Cc1occc1C(=O)NNS(=O)(=O)c1ccc([N+](=O)[O-])cc1` was run?
A: > 26 µM (inactive)

Q: How did the AC40 turn out when `CCC1(c2ccccc2)NC(=O)N(CC(=O)NCc2ccccc2OC)C1=O` (configuration not stated) was run?
A: > 26 µM (inactive)

Q: How did the AC40 turn out when `Cc1ccc(-c2nc3ncccn3c2Nc2ccccc2C)o1` was run?
A: > 26 µM (inactive)

Q: Which AC40 does the source give for `CCCCCNC(=O)C1CCC(Cn2c(=S)[nH]c3ccccc3c2=O)CC1` (configuration not stated) here?
A: > 26 µM (inactive)

Q: How did the AC40 turn out when `Cc1nc2ncnn2c(C)c1CCC(=O)NCc1ccco1` was run?
A: > 26 µM (inactive)

Q: Which AC40 does the source give for `CCOC(=O)/C(=N/Nc1ccc(Cl)cc1)Sc1nnnn1-c1ccc(C)cc1` here?
A: > 12 µM (inactive)

Q: With `c1ccc2c3c([nH]c2c1)CCNC3` as the molecule, how does the AC40 read?
A: > 26 µM (inactive)

Q: How did the AC40 turn out when `COc1ccc(-c2nnc3ccc(SCC(=O)NCC4CCCO4)nn23)cc1` (configuration not stated) was run?
A: > 26 µM (inactive)

Q: Which AC40 does the source give for `Cc1ccc(-c2csc(NC(=O)c3cccc([N+](=O)[O-])c3)n2)cc1` here?
A: > 26 µM (inactive)

Q: For `CCOC(=O)c1c(-c2ccc(C)cc2)cn2ccccc12`, which AC40 is on record?
A: > 26 µM (inactive)

Q: For `COc1cc(CC(=O)N(c2ccccc2)c2nc(C)cs2)cc(OC)c1OC`, which AC40 is on record?
A: > 26 µM (inactive)

Q: How did the AC40 turn out when `COc1ccc(/C=C\c2nc(=O)c3ccccc3o2)cc1` was run?
A: > 26 µM (inactive)

Q: `Cc1cc(C)cc(Oc2ccccc2/C=C\C(=O)O)c1` was tested. Which AC40 did it give?
A: > 26 µM (inactive)

Q: How did the AC40 turn out when `CC(C)(C)c1cc(NC(=O)CCSc2nnc3ccccn23)cc(C(C)(C)C)c1` was run?
A: > 26 µM (inactive)

Q: `CCN1CC(CN(C)Cc2nc(COc3ccccc3)no2)CC1=O` (configuration not stated) was tested. Which AC40 did it give?
A: > 26 µM (inactive)

Q: For `CN1CCN(NC(=O)/C=C/c2ccc(Br)cc2)CC1`, which AC40 is on record?
A: > 26 µM (inactive)

Q: Which AC40 does the source give for `CCC(C)c1ccccc1NC(=O)c1cc(C)no1` (configuration not stated) here?
A: > 26 µM (inactive)

Q: How did the AC40 turn out when `CCOC(=O)c1cc(C#N)c(SCc2ccc(C#N)cc2)nc1C` was run?
A: > 26 µM (inactive)

Q: With `Cn1c(CCC(=O)OCC(=O)Nc2ccc(Oc3ccccc3)cc2)nc(=O)c2ccccc21` as the molecule, how does the AC40 read?
A: > 26 µM (inactive)

Q: For `COc1ccc(-n2cc(CNCc3cccnc3)c(-c3cccc(F)c3)n2)cc1`, which AC40 is on record?
A: > 26 µM (inactive)

Q: For `COc1cc(/C=N/NC(=S)NC2CC3C=CC2C3)cc(OC)c1OC` (configuration not stated), which AC40 is on record?
A: > 26 µM (inactive)

Q: `C/C(Cl)=C/Cc1c(C)[nH]c2ccc(C)cc2c1=O` was tested. Which AC40 did it give?
A: 11.2 µM

Q: With `CC(=O)SC(C[N+](=O)[O-])c1cn(C(C)=O)c2ccccc12` (configuration not stated) as the molecule, how does the AC40 read?
A: > 26 µM (inactive)

Q: How did the AC40 turn out when `Oc1cccnc1Sc1cccc(C(F)(F)F)c1` was run?
A: > 26 µM (inactive)

Q: Which AC40 does the source give for `COc1cc(OC)cc(-c2nnc(Sc3ccc(C=O)cc3[N+](=O)[O-])o2)c1` here?
A: > 26 µM (inactive)

Q: How did the AC40 turn out when `C=CCNC(=S)N/N=C/c1ccc(-c2ccc(Br)cc2)o1` was run?
A: 22 µM

Q: With `O=C(CC(c1ccco1)S(=O)(=O)c1ccccc1)c1ccc(F)cc1` (configuration not stated) as the molecule, how does the AC40 read?
A: > 26 µM (inactive)

Q: How did the AC40 turn out when `C[C@H](NC(=O)[C@@H]1CSC2c3ccccc3C(=O)N21)C(=O)NCCc1ccccc1` (some centres not stated) was run?
A: 24.7 µM

Q: For `COC(=O)c1ccc(C(=O)OC)c(NC(=O)C(C)(C)C)c1`, which AC40 is on record?
A: > 26 µM (inactive)

Q: For `CCN(CC)S(=O)(=O)c1ccc(C(=O)NN(C)C2=NS(=O)(=O)c3ccccc32)cc1`, which AC40 is on record?
A: > 26 µM (inactive)

Q: For `CC(CCc1ccccc1)NC(=O)CN1CCc2ccccc2C1` (configuration not stated), which AC40 is on record?
A: > 26 µM (inactive)

Q: How did the AC40 turn out when `Cc1nc(S(=O)(=O)c2ccc(Cl)cc2)c(NCc2ccccc2)o1` was run?
A: > 26 µM (inactive)

Q: `COc1ccc(NC(=S)Nc2ccccc2SC)c(OC)c1` was tested. Which AC40 did it give?
A: 24.2 µM

Q: How did the AC40 turn out when `S=C(N/N=C/c1cccs1)NC1CC2CCC1C2` (configuration not stated) was run?
A: 4.41 µM

Q: Which AC40 does the source give for `CCN(CC)CCCNC(=O)CSc1c2c(nc3cc(Cl)ccc13)CCCC2` here?
A: 22 µM

Q: With `Nc1nc(SCC(=O)Nc2ccc([N+](=O)[O-])cc2Br)n[nH]1` as the molecule, how does the AC40 read?
A: > 26 µM (inactive)

Q: Which AC40 does the source give for `O=C(C1CCC(CNS(=O)(=O)c2cccc3nsnc23)CC1)N1CCN(c2ccccn2)CC1` (configuration not stated) here?
A: > 26 µM (inactive)

Q: `CCOC(=O)/C=C/C(=O)N1CCc2ccccc21` was tested. Which AC40 did it give?
A: > 26 µM (inactive)

Q: Which AC40 does the source give for `Clc1ccc(SCc2csc(N3CCOCC3)n2)cc1` here?
A: > 26 µM (inactive)

Q: With `CCCn1c(SCc2nc3sc(C)c(C)c3c(=O)[nH]2)nc2ccccc2c1=O` as the molecule, how does the AC40 read?
A: > 26 µM (inactive)

Q: `O=C(CSc1nc2ccccc2c2nc3ccccc3n12)NCc1ccco1` was tested. Which AC40 did it give?
A: 10.1 µM

Q: Which AC40 does the source give for `CCOC(=O)c1sc(C)c2c1NC(C)(c1cccc3ccccc13)NC2=O` (configuration not stated) here?
A: > 26 µM (inactive)

Q: `O=C(O)CSc1nnnn1-c1ccc2c(c1)OCCO2` was tested. Which AC40 did it give?
A: > 26 µM (inactive)

Q: With `Cc1ccc(SCCCCN2CCOCC2)cc1` as the molecule, how does the AC40 read?
A: 23.9 µM

Q: How did the AC40 turn out when `CCN(CCCNC(=O)CNC(=O)c1nn(-c2ccc(OC)cc2OC)c(=O)c2ccccc12)c1cccc(C)c1` was run?
A: > 26 µM (inactive)

Q: `COc1ccc(Cc2nnc(SCC(=O)Nc3ccc(N4CCOCC4)cc3)o2)cc1` was tested. Which AC40 did it give?
A: > 26 µM (inactive)

Q: With `O=C(COC(=O)C1CSC2(c3ccc(F)cc3)CCC(=O)N12)NC(=O)NC1CCCC1` (configuration not stated) as the molecule, how does the AC40 read?
A: > 26 µM (inactive)

Q: With `COc1cc(/C=C(/C#N)C(=O)c2c(C)[nH]c3ccccc23)ccc1OCC#N` as the molecule, how does the AC40 read?
A: > 26 µM (inactive)

Q: How did the AC40 turn out when `Clc1ncnc2scc(C3COc4ccccc4O3)c12` (configuration not stated) was run?
A: 17.7 µM

Q: Which AC40 does the source give for `COc1cccc(CNc2ccc(Br)cn2)c1O` here?
A: 12.2 µM

Q: For `S=C1NC(c2ccccc2)=NCN1c1ccc(Br)cc1`, which AC40 is on record?
A: 8.41 µM

Q: With `Cc1cccc(N2CCN(c3cccc(C)c3)C2c2cccnc2)c1` as the molecule, how does the AC40 read?
A: > 12 µM (inactive)

Q: For `Cc1cccc(OCC(=O)Nc2cc(C)ccc2O)c1`, which AC40 is on record?
A: > 26 µM (inactive)

Q: For `COc1c(Br)cc(Br)cc1C(=O)O`, which AC40 is on record?
A: > 26 µM (inactive)

Q: Which AC40 does the source give for `N#Cc1ccc(OCCN2CCc3ccccc3C2)cc1` here?
A: 8.01 µM

Q: Which AC40 does the source give for `O=C(NCc1ccccc1)c1c(Cl)nc(Cl)c(Cl)c1Cl` here?
A: > 26 µM (inactive)

Q: With `CCOC(=S)SCC(=O)Nc1nc(C)c(C)s1` as the molecule, how does the AC40 read?
A: 12.4 µM

Q: For `O=C1CC(N2C(=O)/C(=C/C=C/c3ccccc3)SC2=S)C(=O)N1c1ccccc1` (configuration not stated), which AC40 is on record?
A: > 26 µM (inactive)

Q: For `O=C(N/N=C/c1ccncc1)c1cc2ccccc2cc1O`, which AC40 is on record?
A: 25.2 µM

Q: `O=C(CSc1cccc2cccnc12)N/N=C/c1cccnc1` was tested. Which AC40 did it give?
A: > 26 µM (inactive)

Q: How did the AC40 turn out when `CC(C)(C)c1ccc(COc2ccsc2C(=O)O)cc1` was run?
A: 4.42 µM
